The target in series [1] is CYP2D6 (Homo sapiens (Human), UniProt P10635). Briefly: CYP inhibition assay, CYP2D6. The format is in vitro ADME. As to conditions: human liver microsomes, probe dextromethorphan. As to the method:
(§1) Method Description CYP Inhibition Assay
(§2) Data analysis: The CYP-mediated activities in the presence of inhibitors were expressed as percentages of the corresponding control values. A sigmoid-shaped curve was fitted to the data, and the enzyme inhibition parameter IC50 was calculated using a nonlinear least-squares regression analysis of the plot of percent control activity versus concentration of the test inhibitor.

Series [2] deals with CYP2C8 (Homo sapiens (Human), UniProt P10632). Briefly: CYP inhibition assay, CYP2C8. The series is classed as in vitro ADME. To be noted: human liver microsomes, probe amodiquine. The method, then: as §1, §2
(Microsomes from liver hold many membrane-bound enzymes, among them those of drug oxidation.)

Series [3] has as its target CYP1A2 (Homo sapiens (Human), UniProt P05177). Kind of series: CYP inhibition assay, CYP1A2. As to the method: as §1, §2
In series [4] the target is CYP2C9 (Homo sapiens (Human), UniProt P11712). Briefly: CYP inhibition assay, CYP2C9. The format is in vitro ADME. To be noted: human liver microsomes, probe diclofenac. As to the method:
as §1, §2

Series [5] addresses T1, CYP3A4 (Homo sapiens (Human), UniProt P08684). Kind of series: Pre-incubation CYP inhibition assay, CYP3A4 (time dependent inhibition). To be noted: human liver microsomes, probe midazolam, 30 min pre-incubation; read-out: CYP3A4 with preincubation IC50. The format is in vitro ADME.
Source text: as §1

The test system of series [6] is rat hepatocytes. Kind of series: In vitro metabolic stability in rat hepatocytes. The series is classed as in vitro ADME, Han Wistar rats. As to conditions: 1 μM, 1.0×10^6 cells/mL, maximal oral bioavailability calculated from half-life. As to the method:
Determination of in vitro metabolic stability in rat hepatocytes (including calculation of hepatic in vivo blood clearance (CL))
Hepatocytes from Han Wistar rats were isolated via a 2-step perfusion method. After perfusion, the liver was carefully removed from the rat: the liver capsule was opened and the hepatocytes were gently shaken out into a Petri dish with ice-cold Williams' medium E (WME). The resulting cell suspension was filtered through sterile gaze in 50 mL falcon tubes and centrifuged at 50×g for 3 min at room temperature. The cell pellet was resuspended in 30 mL WME and centrifuged through a Percoll® gradient for 2 times at 100×g. The hepatocytes were washed again with WME and resuspended in medium containing 5% FCS. Cell viability was determined by trypan blue exclusion.
The test compound was added to a final concentration of 1 μM. […] Samples were frozen at −20° C. overnight, subsequently centrifuged for 15 minutes at 3000 rpm and the supernatant was analyzed with an Agilent 1200 HPLC-system with LCMS/MS detection.
The half-life of a test compound was determined from the concentration-time plot. From the half-life (kel: slope of concentration-time plot; half-life=ln 2/kel) the intrinsic clearances were calculated. Together with the additional parameters liver blood flow, amount of liver cells in vivo and in vitro.
(§3) Metabolic instability is often the main clearance mechanism of xenobiotica leading to a high CL and low bioavailability which may eventually result in a short half-life and a low exposure after oral administration. Thus, reducing the susceptibility of metabolic degradation usually leads to a more favourable pharmacokinetic profile. When using liver microsomes as incubation matrix main phase I metabolic reactions, typically oxidoreductive reactions by cytochrome P450 enzymes and flavin mono-oxygenases (FMO) and hydrolytic reactions by esterases/amidases/epoxidhydrolases, are described. When the incubation of the test compound is performed in a hepatocyte matrix all potential hepatic metabolic processes (phase I and phase II) are covered.

Series [7] is described as follows: In vitro metabolic stability in liver microsomes (calculation of CL and Fmax). To be noted: 1 μM, 0.5 mg/mL protein, maximal oral bioavailability calculated from half-life. The format is in vitro ADME, human. As to the method:
In Vitro Metabolic Stability Assays Determination of in vitro metabolic stability in microsomes (including calculation of hepatic in vivo blood clearance (CL) and of maximal oral bioavailability (Fmax))
The metabolic assay was started shortly afterwards by adding the test compound to the incubation at a final volume of 1 mL. Organic solvent in the incubations was limited to […] dimethylsulfoxide (DMSO) and ≤1% acetonitrile. […] Samples were frozen at −20° C. overnight, subsequently centrifuged for 15 minutes at 3000 rpm and the supernatant was analyzed with an Agilent 1200 HPLC-system with LCMS/MS detection.
The half-life of a test compound was determined from the concentration-time plot. From the half-life (kel: slope of concentration-time plot; half-life=ln 2/kel) the intrinsic clearances were calculated. Together with the additional parameters liver blood flow, specific liver weight and microsomal protein content the hepatic in vivo blood clearance (CL) and the maximal oral bioavailability (Fmax) were calculated for the different species.
as §3

In series [8] the target is T1, CYP3A4. Briefly: CYP inhibition assay, CYP3A4. The series is classed as in vitro ADME. To be noted: human liver microsomes, probe midazolam. The method, then:
as §1, §2

Series [9] has as its system taste sensation via the tongue. As to conditions: clinical PhII trials, attributed to blockade of P2X2/3 channels; cited from earlier work.
The nature of series [10]: Human liver cytosol stability assay. The format is in vitro ADME. As to conditions: human liver cytosol 1 mg/mL, 1 or 10 μM, 37° C. The method, then: Human Liver Cytosol Stability Assay
Method description: Human liver cytosol (pooled, >30 male and female donors) was incubated with individual test compounds in order to compare the extent of depletion of test compound and formation of the respective oxidised metabolite. […] An incubation volume of 1000 μL was used. The test compound was added from a stock solution in acetonitrile at 1 or 10 μM concentration in the incubation. Incubations were performed at 37° C. Reactions were stopped at 0 h and 4 h after incubation by addition of 100 μL acetonitrile to 250 μL of incubation mixture. Precipitated proteins were removed by centrifugation at approximately 3000 rpm. The supernatants were stored at approximately −20° C. until they were analysed. […]
Data analysis: The depletion of the test compound and formation of the corresponding metabolites were determined by decrease or increase of the corresponding peak area in the chromatogram after UV detection at approximately 300 nm 4 h after incubation compared to that at 0 h after incubation. […]

In series [11] the target is human P2X3 receptor (Homo sapiens (Human), UniProt P56373). Briefly: Intracellular calcium measurement (FLIPR, Fluo-4) of antagonist activity at human P2X3 receptors. As to conditions: human P2X3, FLIPR calcium assay, agonist α,β-Me-ATP; read-out: hP2X3 IC50. The series is classed as cell-based. Put shortly: (§4)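 Cells expressing human P2X3 or P2X2/3, loaded with Fluo-4, preincubated 30 min at 37° C. with compound (1% DMSO final), then challenged with α,β-Me-ATP at its EC80. Peak FLIPR fluorescence over 90 sec gave % response; IC50, maximal inhibition and Hill slope from triplicates.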
Background: A change in cytosolic calcium serves as a functional read-out for many receptors and channels.

Series [12] deals with human P2X2/3 receptor (Homo sapiens (Human), UniProt P56373+Q9UBL9). Briefly: Intracellular calcium measurement (FLIPR, Fluo-4) of antagonist activity at human P2X2/3 receptors. The series is classed as cell-based. As to conditions: human P2X2/3, FLIPR calcium assay, agonist α,β-Me-ATP; read-out: hP2X2/3 IC50. A digest of the protocol:
as §4

A short description of series [13]: Bidirectional Caco-2 cell permeability assay. As to conditions: human. The series is classed as in vitro ADME. The method, then: Bidirectional Caco-2 Cell Permeability Assay
Caco-2 cells (purchased from DSMZ Braunschweig, Germany) were seeded at a density of 4.5×10^4 cell per well on 24 well insert plates, 0.4 μm pore size, and grown for 15 days in Dulbecco's modified Eagle medium supplemented with 10% fetal bovine serum, 1% GlutaMAX (100×, purchased from GIBCO), 100 U/ml penicillin, 100 μg/ml streptomycin (purchased from GIBCO) and 1% non-essential amino acids (100×). Cells were maintained at 37° C. in a humidified 5% CO2 atmosphere. Medium was changed every 2-3 days. […] Test compounds were dissolved in DMSO and added to the donor chamber representing either the apical or basolateral compartment in a final concentration of 2 μM. Before and after 2 h incubation at 37° C. samples were taken from both compartments (donor and receiver chamber). Analysis of compound concentrations was done after precipitation with methanol. Analysis was performed by high-pressure liquid chromatography and a tandem mass spectrometric detector using an Agilent 1200 liquid chromatography system and an AB Sciex API4000 triple-quadrupole mass spectrometer applying the parameters, which were optimized to achieve maximum signal intensity of the corresponding test compound. Permeability (Papp) was calculated in the apical to basolateral (A→B) and basolateral to apical (B→A) directions. […] The efflux ratio basolateral (B) to apical (A) was calculated by dividing the Papp B-A by the Papp A-B.
The bidirectional Caco-2 cell permeability assay is a well-established method for predicting the in vivo absorption of drugs across the gut wall by measuring the rate of transport of a compound across the Caco-2 monolayer. Since differentiated Caco-2 cells express functional efflux transport proteins like P-gp, they are also used for identification of compounds with efflux liabilities. Intestinal efflux can decrease systemic plasma concentrations of an orally dosed compound by affecting intestinal absorption of a compound.
Background: Caco-2 cells form a polarised layer with tight junctions and transporters.

T1 sequence (P08684 whole entry): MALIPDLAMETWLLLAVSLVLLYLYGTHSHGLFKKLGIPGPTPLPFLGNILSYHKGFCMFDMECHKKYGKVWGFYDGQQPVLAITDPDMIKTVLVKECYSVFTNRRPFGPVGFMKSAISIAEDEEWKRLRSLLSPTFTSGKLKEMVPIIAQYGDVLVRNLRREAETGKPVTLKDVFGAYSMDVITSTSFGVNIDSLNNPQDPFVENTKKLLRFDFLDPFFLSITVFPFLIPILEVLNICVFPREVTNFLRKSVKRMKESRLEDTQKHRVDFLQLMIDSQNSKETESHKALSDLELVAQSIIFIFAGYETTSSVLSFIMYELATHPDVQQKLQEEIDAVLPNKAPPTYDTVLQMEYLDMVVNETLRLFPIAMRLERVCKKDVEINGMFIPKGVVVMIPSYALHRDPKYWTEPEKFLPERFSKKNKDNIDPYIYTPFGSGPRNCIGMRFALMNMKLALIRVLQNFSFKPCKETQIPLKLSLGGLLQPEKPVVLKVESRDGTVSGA
Chain of CYP2D6 (P10635 whole entry): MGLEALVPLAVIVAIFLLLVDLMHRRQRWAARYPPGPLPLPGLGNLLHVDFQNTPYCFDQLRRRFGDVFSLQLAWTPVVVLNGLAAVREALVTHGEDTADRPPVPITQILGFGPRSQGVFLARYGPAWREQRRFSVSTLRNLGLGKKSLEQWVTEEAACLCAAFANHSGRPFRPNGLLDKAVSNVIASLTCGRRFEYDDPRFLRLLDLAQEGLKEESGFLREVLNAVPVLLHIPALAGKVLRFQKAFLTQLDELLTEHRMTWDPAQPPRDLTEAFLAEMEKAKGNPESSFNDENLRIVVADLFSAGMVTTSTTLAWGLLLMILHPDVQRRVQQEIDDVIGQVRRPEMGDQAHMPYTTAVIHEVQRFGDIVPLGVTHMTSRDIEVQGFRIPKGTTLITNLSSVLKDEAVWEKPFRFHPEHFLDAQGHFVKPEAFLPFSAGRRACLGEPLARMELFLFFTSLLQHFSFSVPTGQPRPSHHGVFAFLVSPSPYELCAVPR
Chain of CYP2C8 (P10632 whole entry): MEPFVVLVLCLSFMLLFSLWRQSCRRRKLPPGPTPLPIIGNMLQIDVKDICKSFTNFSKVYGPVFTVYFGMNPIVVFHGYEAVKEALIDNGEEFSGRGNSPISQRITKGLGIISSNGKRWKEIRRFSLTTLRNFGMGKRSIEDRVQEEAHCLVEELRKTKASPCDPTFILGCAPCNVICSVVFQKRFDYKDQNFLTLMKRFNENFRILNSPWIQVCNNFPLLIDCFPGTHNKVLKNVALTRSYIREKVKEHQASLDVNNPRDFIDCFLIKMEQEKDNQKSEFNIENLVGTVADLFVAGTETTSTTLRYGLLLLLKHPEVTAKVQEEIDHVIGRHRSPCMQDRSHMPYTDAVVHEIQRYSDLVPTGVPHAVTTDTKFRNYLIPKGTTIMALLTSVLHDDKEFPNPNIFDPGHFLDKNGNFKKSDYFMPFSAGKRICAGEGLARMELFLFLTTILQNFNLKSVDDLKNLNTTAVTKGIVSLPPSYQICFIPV
Chain of human P2X3 receptor (P56373 whole entry): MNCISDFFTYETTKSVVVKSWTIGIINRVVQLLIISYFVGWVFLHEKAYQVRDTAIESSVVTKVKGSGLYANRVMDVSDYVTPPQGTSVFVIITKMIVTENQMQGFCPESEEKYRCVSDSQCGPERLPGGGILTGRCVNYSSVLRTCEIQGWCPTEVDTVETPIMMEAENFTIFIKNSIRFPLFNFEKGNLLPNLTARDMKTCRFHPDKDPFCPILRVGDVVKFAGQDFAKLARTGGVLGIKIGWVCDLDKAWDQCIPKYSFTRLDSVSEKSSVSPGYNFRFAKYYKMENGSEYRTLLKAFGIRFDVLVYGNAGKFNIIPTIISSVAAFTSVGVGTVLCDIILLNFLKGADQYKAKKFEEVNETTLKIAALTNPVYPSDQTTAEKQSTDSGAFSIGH
Chain of human P2X2/3 receptor (P56373 whole entry): as above
Chain of human P2X2/3 receptor (Q9UBL9 whole entry): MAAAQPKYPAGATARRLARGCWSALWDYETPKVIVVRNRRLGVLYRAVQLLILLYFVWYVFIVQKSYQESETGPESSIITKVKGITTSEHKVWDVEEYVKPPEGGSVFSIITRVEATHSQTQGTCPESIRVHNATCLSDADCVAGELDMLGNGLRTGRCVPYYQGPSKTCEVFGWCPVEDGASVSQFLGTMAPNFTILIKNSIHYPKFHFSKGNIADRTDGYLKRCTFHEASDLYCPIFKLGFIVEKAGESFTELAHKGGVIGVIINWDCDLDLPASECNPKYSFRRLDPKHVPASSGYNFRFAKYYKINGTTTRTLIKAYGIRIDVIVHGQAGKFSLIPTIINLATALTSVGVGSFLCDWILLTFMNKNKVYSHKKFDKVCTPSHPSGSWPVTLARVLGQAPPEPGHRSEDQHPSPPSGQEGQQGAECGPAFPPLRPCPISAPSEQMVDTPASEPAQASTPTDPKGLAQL
Chain of CYP2C9 (P11712 whole entry): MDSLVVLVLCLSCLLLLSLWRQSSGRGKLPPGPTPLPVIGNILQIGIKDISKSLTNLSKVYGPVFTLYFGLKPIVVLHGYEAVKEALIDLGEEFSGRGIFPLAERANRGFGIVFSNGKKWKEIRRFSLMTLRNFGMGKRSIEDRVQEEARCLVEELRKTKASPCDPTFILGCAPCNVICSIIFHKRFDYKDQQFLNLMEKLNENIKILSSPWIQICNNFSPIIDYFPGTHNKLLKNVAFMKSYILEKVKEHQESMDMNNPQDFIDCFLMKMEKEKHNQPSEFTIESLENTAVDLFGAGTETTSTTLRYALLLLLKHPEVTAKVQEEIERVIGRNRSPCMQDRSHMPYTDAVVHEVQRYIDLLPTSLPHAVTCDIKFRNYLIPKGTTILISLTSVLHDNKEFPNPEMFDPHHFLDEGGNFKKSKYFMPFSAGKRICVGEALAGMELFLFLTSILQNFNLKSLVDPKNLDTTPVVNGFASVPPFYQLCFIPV
Chain of CYP1A2 (P05177 whole entry): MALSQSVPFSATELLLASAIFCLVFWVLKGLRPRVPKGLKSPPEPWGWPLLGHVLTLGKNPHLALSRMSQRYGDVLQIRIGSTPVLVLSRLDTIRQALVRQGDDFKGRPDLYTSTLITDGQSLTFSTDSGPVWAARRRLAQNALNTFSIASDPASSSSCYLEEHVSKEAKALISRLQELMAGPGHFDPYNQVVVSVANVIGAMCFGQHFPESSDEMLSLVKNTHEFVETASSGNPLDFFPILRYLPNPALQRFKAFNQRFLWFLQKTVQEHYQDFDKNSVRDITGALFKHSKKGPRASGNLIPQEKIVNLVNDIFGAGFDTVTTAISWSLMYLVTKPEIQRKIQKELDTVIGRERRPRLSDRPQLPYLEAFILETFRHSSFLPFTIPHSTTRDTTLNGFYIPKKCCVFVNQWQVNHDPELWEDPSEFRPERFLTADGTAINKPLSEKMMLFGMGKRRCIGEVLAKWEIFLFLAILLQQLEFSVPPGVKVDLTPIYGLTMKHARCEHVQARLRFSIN

Consider `Cc1cnc(-c2cc(OC(C)C(C)O)cc(C(=O)N[C@H](C)c3cnc(C(F)(F)F)nc3)c2)s1` (single isomer, unassigned) [Example 163], for which the IC50 in series [1], in [2], in series [3], in [4], in [5] and in series [8] was more than 20 µM in each case. Besides, in series [6], the “Rat hepatocyte Fmax” value was 53%. In addition, in series [7], the “Human liver microsome Fmax” value is 100%.

On to `COc1cc(C(C)C)c(Oc2cnc(N)nc2N)cc1S(N)(=O)=O` [AF-219], for which the “effect on taste in treated subjects” value in series [9] is reported as “leads to taste disturbances”.

Take `Cc1cnc(-c2cc(O[C@H]3CCOC3)cc(C(=O)N[C@H](C)c3cnc(C(F)(F)F)nc3)c2)s1` [Example 26, 3-(5-Methyl-1,3-thiazol-2-yl)-5-[(3S)-tetrahydrofuran-3-yloxy]-N-{(1R)-1-[2-(trifluoromethyl)pyrimidin-5-yl]ethyl}benzamide]: the “Rat hepatocyte Fmax” value in series [6] was 56%. Further, in series [7], the “Human liver microsome Fmax” value is recorded as 67%. For the same compound, the “Test compound turnover after 4 h” value in series [10] is given as 12%.

A word on the efflux ratio: it is the permeability from basolateral to apical divided by that in the opposite direction, in the common usage. By Papp A→B is commonly meant the apparent permeability from the apical to the basolateral side of a cell layer. Lower therefore signals poor permeation. Broadly, the Papp B→A is the apparent permeability from the basolateral to the apical side of a cell layer. For the compound `CCc1cnc(-c2cc(OC[C@H]3CN(C)CCO3)cc(C(=O)N[C@H](C)c3ccc(C(F)(F)F)nn3)c2)s1` [Example 419, 3-(5-ethyl-1,3-thiazol-2-yl)-5-{[(2R)-4-methylmorpholin-2-yl]methoxy}-N-{(1R)-1-[6-(trifluoromethyl)pyridazin-3-yl]ethyl}benzamide], the figures for the IC50 in series [11] and in [12] were 0.009 µM and 1.14 µM, respectively. Besides, the efflux ratio at 2 h, 2 μM in series [13] (Caco-2, pH 7.2, Papp B-A divided by Papp A-B) was 1.7. The same compound gave an apparent permeability from apical to basolateral (Papp A→B) at 2 h, 2 μM in series [13] (Caco-2, apical to basolateral, 2 μM, 2 h, 37° C., pH 7.2) of 10.4 ×10⁻⁶ cm/s. For the same compound, the basolateral-to-apical permeability (Papp B→A) at 2 h, 2 μM in series [13] (Caco-2, basolateral to apical, 2 μM, 2 h, 37° C., pH 7.2) came out at 17.5 ×10⁻⁶ cm/s. Further, the “Rat hepatocyte Fmax” value in series [6] is given as 51%. Also, in [7], the “Human liver microsome Fmax” value is recorded as 74%.

The values are drawn from patent US10174016B2 (BAYER AKTIENGESELLSCHAFT, priority 2014, dated 2019).
